Legend:
[1] = test system: MGL (rat brain homogenate); assay: 2-AG accumulation assay in rat brain homogenate; type: biochemical; conditions: compound 1 μM, percent of vehicle 2-AG accumulation
Protocol: After a 15-min incubation time at 37° C., CaCl2 (final concentration=10 mM) was added and then incubated for 15 min at 37° C. in a total volume of 5 mL. The reactions were stopped with 6 mL organic solvent extraction solution of 2:1 chloroform/methanol. Accumulated 2-AG in the organic phase was measured by a HPLC/MS method, according to the following equation: percent vehicle=(2-AG accumulation in the presence of compound/2-AG accumulation in vehicle)×100.

[2] = molecular target: T1, purified wild type MGL (wt-MGLL 6H-11-313) (Homo sapiens, UniProt Q99685); assay: MGL enzyme activity assay (4MU-B cleavage), wild type MGL; type: biochemical; conditions: wild type MGL 5 nM, 4MU-B 10 μM, 37° C.; read-out: MGL wild type inh IC50
T1 construct: purified wild type MGL (wt-MGLL 6H-11-313)
T1 sequence (Q99685 1-303): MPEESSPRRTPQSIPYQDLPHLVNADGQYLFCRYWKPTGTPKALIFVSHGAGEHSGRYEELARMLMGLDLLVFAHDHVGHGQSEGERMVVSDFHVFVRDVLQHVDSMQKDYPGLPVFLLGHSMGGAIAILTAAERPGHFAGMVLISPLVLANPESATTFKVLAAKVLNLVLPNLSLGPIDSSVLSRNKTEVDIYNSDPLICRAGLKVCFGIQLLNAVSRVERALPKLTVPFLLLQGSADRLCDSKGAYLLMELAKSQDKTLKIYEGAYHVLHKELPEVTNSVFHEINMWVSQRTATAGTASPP
Procedure, shortened: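 Enzyme in 20 mM PIPES pH 7.0, 150 mM NaCl, 0.001% Tween 20 with 4MU-B at 10 μM final and MGL at 5 nM final; compounds 17 to 0.0003 μM final, enzyme added last. Fluorescence (ex 335/em 440 nm) followed at 37° C for 5 min; IC50 from fit of fractional activity versus inhibitor concentration.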

Structure (SMILES)	IC50 [2] [nM]	Rat Brain 2AG % VehCntrl (%) @1 μM [1] [%]
O=C(c1cscn1)N1CC[C@H](NC2CN(C(=O)c3cc4cc(-c5cccc(C(F)(F)F)c5)ccc4s3)C2)C1 [Cpd 130, (3S)-1-(1,3-Thiazol-4-ylcarbonyl)-N-[1-({5-[3-(trifluoromethyl)phenyl]-1-benzothiophen-2-yl}carbonyl)azetidin-3-yl]pyrrolidin-3-amine]	< 5	747
O=C(c1cscn1)N1CC[C@H](NC2CN(C(=O)c3cc4cc(-c5ccccc5)ccc4s3)C2)C1 [Cpd 131, (3S)-N-{1-[(5-Phenyl-1-benzothiophen-2-yl)carbonyl]azetidin-3-yl}-1-(1,3-thiazol-4-ylcarbonyl)pyrrolidin-3-amine]	< 5	385
O=C(c1cc2cc(-c3cccc(C(F)(F)F)c3)ccc2s1)N1CC(N[C@H]2CCN(C(=O)c3nccs3)C2)C1 [Cpd 132, (3S)-1-(1,3-Thiazol-2-ylcarbonyl)-N-[1-({5-[3-(trifluoromethyl)phenyl]-1-benzothiophen-2-yl}carbonyl)azetidin-3-yl]pyrrolidin-3-amine]	< 5	1233
O=C(c1cc2ccc(C(F)(F)F)cc2s1)N1CC(N[C@H]2CCN(C(=O)c3nccs3)C2)C1 [Cpd 138, (3S)-1-(1,3-Thiazol-2-ylcarbonyl)-N-(1-{[6-(trifluoromethyl)-1-benzothiophen-2-yl]carbonyl}azetidin-3-yl)pyrrolidin-3-amine]	16	340
O=C(c1nccs1)N1CC[C@H](NC2CN(C(=O)c3sc4cc(Br)ccc4c3Cl)C2)C1 [Cpd 140, (3S)-N-{1-[(6-Bromo-3-chloro-1-benzothiophen-2-yl)carbonyl]azetidin-3-yl}-1-(1,3-thiazol-2-ylcarbonyl)pyrrolidin-3-amine]	12.4	742
O=C(c1cscn1)N1CC[C@H](NC2CN(C(=O)c3sc4cc(Br)ccc4c3Cl)C2)C1 [Cpd 141, (3S)-N-{1-[(6-Bromo-3-chloro-1-benzothiophen-2-yl)carbonyl]azetidin-3-yl}-1-(1,3-thiazol-4-ylcarbonyl)pyrrolidin-3-amine]	19	388
O=C(c1ccc2c(c1)c(F)cn2-c1ccc(F)cc1)N1CC(N[C@H]2CCN(C(=O)c3ccccc3)C2)C1 [Cpd 142, (3S)-N-(1-{[3-Fluoro-1-(4-fluorophenyl)-1H-indol-5-yl]carbonyl}azetidin-3-yl)-1-(phenylcarbonyl)pyrrolidin-3-amine]	56.5	247
O=C(c1ccc2c(c1)c(F)cn2-c1ccc(F)cc1)N1CC(N[C@H]2CCN(C(=O)c3cscn3)C2)C1 [Cpd 143, (3S)-N-(1-{[3-Fluoro-1-(4-fluorophenyl)-1H-indol-5-yl]carbonyl}azetidin-3-yl)-1-(1,3-thiazol-4-ylcarbonyl)pyrrolidin-3-amine]	46.5	244
O=C(c1ccc(Cc2ccc(C(F)(F)F)cc2)cc1)N1CC(N[C@H]2CCN(C(=O)c3cscn3)C2)C1 [Cpd 144, (3S)-1-(1,3-Thiazol-4-ylcarbonyl)-N-[1-({4-[4-(trifluoromethyl)benzyl]phenyl}carbonyl)azetidin-3-yl]pyrrolidin-3-amine]	< 5	992
O=C(c1ccc(-c2ccc(C(F)(F)F)cc2)cc1)N1CC(N[C@H]2CCN(C(=O)c3cscn3)C2)C1 [Cpd 145, (3S)-1-(1,3-Thiazol-4-ylcarbonyl)-N-(1-{[4′-(trifluoromethyl)biphenyl-4-yl]carbonyl}azetidin-3-yl)pyrrolidin-3-amine]	96.4	193
O=C(c1nccs1)N1CC[C@H](NC2CN(C(=O)c3sc4cc(-c5ccccc5)ccc4c3Cl)C2)C1 [Cpd 146, (3S)-N-{1-[(3-Chloro-6-phenyl-1-benzothiophen-2-yl)carbonyl]azetidin-3-yl}-1-(1,3-thiazol-2-ylcarbonyl)pyrrolidin-3-amine]	< 5	680
O=C(c1cscn1)N1CC[C@H](NC2CN(C(=O)c3sc4cc(-c5ccccc5)ccc4c3Cl)C2)C1 [Cpd 147, (3S)-N-{1-[(3-Chloro-6-phenyl-1-benzothiophen-2-yl)carbonyl]azetidin-3-yl}-1-(1,3-thiazol-4-ylcarbonyl)pyrrolidin-3-amine]	< 5	506
O=C(c1nccs1)N1CC[C@H](NC2CN(C(=O)c3sc4cc(-c5cccc(C(F)(F)F)c5)ccc4c3Cl)C2)C1 [Cpd 148, (3S)-N-[1-({3-Chloro-6-[3-(trifluoromethyl)phenyl]-1-benzothiophen-2-yl}carbonyl)azetidin-3-yl]-1-(1,3-thiazol-2-ylcarbonyl)pyrrolidin-3-amine]	< 5	942

Now from value to compound, other results behind:

IC50 [2] [nM]	Structure (SMILES)	Rat Brain 2AG % VehCntrl (%) @1 μM [1] [%]
< 5	O=C(c1cscn1)N1CC[C@H](NC2CN(C(=O)c3sc4cc(-c5cccc(C(F)(F)F)c5)ccc4c3Cl)C2)C1 [Cpd 149, (3S)-N-[1-({3-Chloro-6-[3-(trifluoromethyl)phenyl]-1-benzothiophen-2-yl}carbonyl)azetidin-3-yl]-1-(1,3-thiazol-4-ylcarbonyl)pyrrolidin-3-amine]	811
< 5	O=C(c1nccs1)N1CC[C@H](NC2CN(C(=O)c3sc4cc(-c5ccc(C(F)(F)F)cc5)ccc4c3Cl)C2)C1 [Cpd 150, (3S)-N-[1-({3-Chloro-6-[4-(trifluoromethyl)phenyl]-1-benzothiophen-2-yl}carbonyl)azetidin-3-yl]-1-(1,3-thiazol-2-ylcarbonyl)pyrrolidin-3-amine]	759
< 5	O=C(c1cscn1)N1CC[C@H](NC2CN(C(=O)c3sc4cc(-c5ccc(C(F)(F)F)cc5)ccc4c3Cl)C2)C1 [Cpd 151, (3S)-N-[1-({3-Chloro-6-[4-(trifluoromethyl)phenyl]-1-benzothiophen-2-yl}carbonyl)azetidin-3-yl]-1-(1,3-thiazol-4-ylcarbonyl)pyrrolidin-3-amine]	495
35.2	O=C(c1ccccc1)N1CC[C@H](NC2CN(C(=O)c3ccc(-c4cccc(C(F)(F)F)c4)cc3F)C2)C1 [Cpd 152, (3S)-N-(1-{[3-Fluoro-3′-(trifluoromethyl)biphenyl-4-yl]carbonyl}azetidin-3-yl)-1-(phenylcarbonyl)pyrrolidin-3-amine]	404
13.4	O=C(c1ccc2c(ccn2-c2ccc(C(F)(F)F)cc2)c1)N1CC(N[C@H]2CCN(C(=O)c3ccccc3)C2)C1 [Cpd 154, (3S)-1-(Phenylcarbonyl)-N-[1-({1-[4-(trifluoromethyl)phenyl]-1H-indol-5-yl}carbonyl)azetidin-3-yl]pyrrolidin-3-amine]	582
16	O=C(c1ccc2c(ccn2-c2ccc(C(F)(F)F)cc2)c1)N1CC(N[C@H]2CCN(C(=O)c3cscn3)C2)C1 [Cpd 158, (3S)-1-(1,3-Thiazol-4-ylcarbonyl)-N-[1-({1-[4-(trifluoromethyl)phenyl]-1H-indol-5-yl}carbonyl)azetidin-3-yl]pyrrolidin-3-amine]	415
12.4	O=C(c1ccc2c(ccn2-c2ccc(F)cc2)c1)N1CC(N[C@H]2CCN(C(=O)c3cscn3)C2)C1 [Cpd 160, (3S)-N-(1-{[1-(4-Fluorophenyl)-1H-indol-5-yl]carbonyl}azetidin-3-yl)-1-(1,3-thiazol-4-ylcarbonyl)pyrrolidin-3-amine]	338
55	O=C(c1ccc2c(ccn2-c2ccc(F)cc2)c1)N1CC(N[C@H]2CCN(C(=O)c3ccccc3)C2)C1 [Cpd 161, (3S)-N-(1-{[1-(4-Fluorophenyl)-1H-indol-5-yl]carbonyl}azetidin-3-yl)-1-(phenylcarbonyl)pyrrolidin-3-amine]	485
10.7	Cn1cc(-c2ccc(C(F)(F)F)cc2)c2ccc(C(=O)N3CC(N[C@H]4CCN(C(=O)c5nccs5)C4)C3)cc21 [Cpd 163, (3S)-N-[1-({1-Methyl-3-[4-(trifluoromethyl)phenyl]-1H-indol-6-yl}carbonyl)azetidin-3-yl]-1-(1,3-thiazol-2-ylcarbonyl)pyrrolidin-3-amine]	274
25.1	Cn1cc(-c2cccc(C(F)(F)F)c2)c2ccc(C(=O)N3CC(N[C@H]4CCN(C(=O)c5cscn5)C4)C3)cc21 [Cpd 164, (3S)-N-[1-({1-Methyl-3-[3-(trifluoromethyl)phenyl]-1H-indol-6-yl}carbonyl)azetidin-3-yl]-1-(1,3-thiazol-4-ylcarbonyl)pyrrolidin-3-amine]	458
44.5	Cn1cc(-c2ccc(C(F)(F)F)cc2)c2ccc(C(=O)N3CC(N[C@H]4CCN(C(=O)c5cscn5)C4)C3)cc21 [Cpd 165, (3S)-N-[1-({1-Methyl-3-[4-(trifluoromethyl)phenyl]-1H-indol-6-yl}carbonyl)azetidin-3-yl]-1-(1,3-thiazol-4-ylcarbonyl)pyrrolidin-3-amine]	228

Source: US8748417B2, “Amino-pyrrolidine-azetidine diamides as monoacylglycerol lipase inhibitors” (Janssen Pharmaceutica, NV, priority 2010, dated 2014)
